The target in the experiment is T1, human FXR (NR1H4) (Homo sapiens, UniProt Q96RI1).
T1 sequence (Q96RI1 1-486): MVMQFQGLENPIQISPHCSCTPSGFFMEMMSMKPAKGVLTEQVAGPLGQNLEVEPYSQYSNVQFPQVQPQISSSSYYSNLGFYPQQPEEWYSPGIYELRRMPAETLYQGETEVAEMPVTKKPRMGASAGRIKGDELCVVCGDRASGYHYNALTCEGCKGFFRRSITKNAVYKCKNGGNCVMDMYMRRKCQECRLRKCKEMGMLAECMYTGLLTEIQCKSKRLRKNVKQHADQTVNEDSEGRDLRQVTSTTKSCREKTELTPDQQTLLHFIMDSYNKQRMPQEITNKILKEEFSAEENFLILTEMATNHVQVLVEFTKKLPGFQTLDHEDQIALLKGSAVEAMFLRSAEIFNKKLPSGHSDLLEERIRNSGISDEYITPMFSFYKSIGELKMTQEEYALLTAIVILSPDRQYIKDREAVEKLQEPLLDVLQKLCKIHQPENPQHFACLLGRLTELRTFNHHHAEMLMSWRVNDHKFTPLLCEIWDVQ
Description: Human FXR (NR1H4) Assay (Gal4 promoter driven luciferase reporter, Indigo Bioscience kit IB00601). The format is cell-based. The conditions noted are these: FXR agonistic potency; CHO reporter cells expressing human NR1H4; 22 hours incubation; luciferase readout. An excerpt:
Determination of a ligand mediated Gal4 promoter driven transactivation to quantify ligand binding mediated activation of FXR. FXR Reporter Assay kit purchased from Indigo Bioscience (Catalogue number: IB00601) to determine the potency and efficacy of compound developed by Enanta that can induce FXR activation. The principle application of this reporter assay system is to quantify functional activity of human FXR. The assay utilizes non-human mammalian cells, CHO (Chinese hamster ovary) cells engineered to express human NR1H4 protein (referred to as FXR). Reporter cells also incorporate the cDNA encoding beetle luciferase which catalyzes the substrates and yields photon emission. Luminescence intensity of the reaction is quantified using a plate-reading luminometer, Envision. Reporter Cells include the luciferase reporter gene functionally linked to an FXR responsive promoter. Thus, quantifying changes in luciferase expression in the treated reporter cells provides a sensitive surrogate measure of the changes in FXR activity. […] The assay is according to the manufacturer's instructions. In brief, the assay was performed in white, 96 well plates using final volume of 100 uL containing cells with different doses of compounds. Retrieve Reporter Cells from −80° C. storage. Perform a rapid thaw of the frozen cells by transferring a 10 ml volume of 37° C. cell recovery medium into the tube of frozen cells. Recap the tube of Reporter Cells and immediately place it in a 37° C. water bath for 5-10 minutes. Retrieve the tube of Reporter Cell Suspension from the water bath. Sanitize the outside surface of the tube with a 70% alcohol swab, and then transfer it into the cell culture hood. Dispense 90 μl of cell suspension into each well of the 96-well Assay Plate. Transfer the plate into 37° C. incubator, allowing the cells adherent to the bottom of the well. Dilute compounds in Dilution Plate (DP), and administrate to cells at Assay Plate (AP). DMSO content of the samples was kept at 0.2%. Cells were incubated for additional 22 hours before luciferase activities were measured. Thirty minutes before intending to quantify FXR activity, remove Detection Substrate and Detection Buffer from the refrigerator and place them in a low-light area so that they may equilibrate to room temperature. Remove the plate's lid and discard all media contents by ejecting it into an appropriate waste container. Gently tap the inverted plate onto a clean absorbent paper towel to remove residual droplets. Cells will remain tightly adhered to well bottoms. Add 100 μl of luciferase detection reagent to each well of the assay plate. Allow the assay plate to rest at room temperature for at least 5 minutes following the addition of LDR. Set the instrument (Envision) to perform a single 5 second “plate shake” prior to reading the first assay well. Read time may be 0.5 second (500 mSec) per well.

Molecules are shown by their SMILES.

As a reminder, the EC50 is the concentration giving half of the maximal effect. Higher therefore signals a less potent agent. `CC[C@H]1[C@@H](O)[C@@H]2[C@H](CC[C@]3(C)[C@@H]([C@H](C)COC(=O)NS(=O)(=O)c4ccc5c(c4)CC(C)(C)O5)CC[C@@H]23)[C@@]2(C)CC[C@@H](O)C[C@@H]12` [Example 6] had an EC50 of less than 1 nM. In the case of `CCC(CC)Oc1ccc(S(=O)(=O)NC(=O)OC[C@@H](C)[C@H]2CC[C@H]3[C@@H]4[C@H](O)[C@H](CC)[C@@H]5C[C@H](O)CC[C@]5(C)[C@H]4CC[C@]23C)cc1` [Example 19], the EC50 is 10 to 100 nM. As to `CC[C@H]1[C@@H](O)[C@@H]2[C@H](CC[C@]3(C)[C@@H]([C@H](C)COC(=O)NS(=O)(=O)c4ccc(O[C@H](C)CC)cc4)CC[C@@H]23)[C@@]2(C)CC[C@@H](O)C[C@@H]12` [Example 17], the half-maximal effective concentration (EC50) is less than 1 nM. As for `C[C@H](COC(=O)NS(=O)(=O)c1ccc(OC(C)(C)C)cc1)[C@H]1CC[C@H]2[C@@H]3[C@H](O)C[C@@H]4C[C@H](O)CC[C@]4(C)[C@H]3CC[C@]12C` [Example 2], the figure is 10 to 100 nM; as for `CC[C@H]1[C@@H](O)[C@@H]2[C@H](CC[C@]3(C)[C@@H]([C@H](C)COC(=O)NS(=O)(=O)c4ccc(OC(F)(F)C(F)(F)F)cc4)CC[C@@H]23)[C@@]2(C)CC[C@@H](O)C[C@@H]12` [Example 30], 1 to 10 nM; as for `CC[C@H]1[C@@H](O)[C@@H]2[C@H](CC[C@]3(C)[C@@H]([C@H](C)COC(=O)NS(=O)(=O)c4ccc(OC5(C)CC5)cc4)CC[C@@H]23)[C@@]2(C)CC[C@@H](O)C[C@@H]12` [Example 29], less than 1 nM. As to `CC[C@H]1[C@@H](O)[C@@H]2[C@H](CC[C@]3(C)[C@@H]([C@H](C)COC(=O)NS(=O)(=O)c4cnc(OC(C)C)nc4)CC[C@@H]23)[C@@]2(C)CC[C@@H](O)C[C@@H]12` [Example 28], the concentration for a half-maximal effect (EC50) was in the range of 10 to 100 nM.

With `CC[C@H]1[C@@H](O)[C@@H]2[C@H](CC[C@]3(C)[C@@H]([C@H](C)COC(=O)NS(=O)(=O)c4ccc(Oc5ccccc5)cc4)CC[C@@H]23)[C@@]2(C)CC[C@@H](O)C[C@@H]12` [Example 25], the EC50 was greater than 100 nM. The value for `CC[C@H]1[C@@H](O)[C@@H]2[C@H](CC[C@]3(C)[C@@H]([C@H](C)COC(=O)NS(=O)(=O)c4ccc5c(c4)CCC(C)(C)O5)CC[C@@H]23)[C@@]2(C)CC[C@H](O)C[C@@H]12` [Example 33] was less than 1 nM. The value for `CC[C@H]1[C@@H](O)[C@@H]2[C@H](C[C@H](O)[C@]3(C)[C@@H]([C@H](C)COC(=O)NS(=O)(=O)c4ccc(OC(C)C)cc4)CC[C@@H]23)[C@@]2(C)CC[C@@H](O)C[C@@H]12` [Example 31] was greater than 100 nM. As for `CC(C)Oc1ccc(S(=O)(=O)NC(=O)OC[C@@H](C)[C@H]2CC[C@H]3[C@@H]4[C@H](O)C[C@@H]5C[C@H](O)CC[C@]5(C)[C@H]4CC[C@]23C)cc1` [Example 3], the figure is greater than 100 nM. Consider `CC[C@H]1[C@@H](O)[C@@H]2[C@H](CC[C@]3(C)[C@@H]([C@H](C)COC(=O)NS(=O)(=O)c4ccc(OC(C)C)cc4)CC[C@@H]23)[C@@]2(C)CC[C@@H](O)C[C@@H]12` [Example 4], for which the EC50 is less than 1 nM. As for `CC[C@H]1[C@@H](O)[C@@H]2[C@H](CC[C@]3(C)[C@@H]([C@H](C)COC(=O)NS(=O)(=O)c4ccc(OCC(C)(C)C)cc4)CC[C@@H]23)[C@@]2(C)CC[C@@H](O)C[C@@H]12` [Example 20], the figure is 1 to 10 nM; as for `CC[C@H]1[C@@H](O)[C@@H]2[C@H](CC[C@]3(C)[C@@H]([C@H](C)COC(=O)NS(=O)(=O)c4ccc(OC(C)C)c(C)c4)CC[C@@H]23)[C@@]2(C)CC[C@@H](O)C[C@@H]12` [Example 13], less than 1 nM; as for `CC[C@H]1[C@@H](O)[C@@H]2[C@H](CC[C@]3(C)[C@@H]([C@H](C)COC(=O)NS(=O)(=O)c4ccc(OC5CC5)cc4)CC[C@@H]23)[C@@]2(C)CC[C@@H](O)C[C@@H]12` [Example 7], less than 1 nM. As for `CCCOc1ccc(S(=O)(=O)NC(=O)OC[C@@H](C)[C@H]2CC[C@H]3[C@@H]4[C@H](O)[C@H](CC)[C@@H]5C[C@H](O)CC[C@]5(C)[C@H]4CC[C@]23C)cc1` [Example 15], the figure is less than 1 nM; as for `CC[C@H]1[C@@H](O)[C@@H]2[C@H](CC[C@]3(C)[C@@H]([C@H](C)COC(=O)NS(=O)(=O)c4ccc(O)cc4)CC[C@@H]23)[C@@]2(C)CC[C@@H](O)C[C@@H]12` [Example 26], greater than 100 nM. As for `CC[C@H]1[C@@H](O)[C@@H]2[C@H](CC[C@]3(C)[C@@H]([C@H](C)COC(=O)NS(=O)(=O)c4ccc(OC5(C)CCCCC5)cc4)CC[C@@H]23)[C@@]2(C)CC[C@@H](O)C[C@@H]12` [Example 12], the figure is less than 1 nM; as for `CC[C@H]1[C@@H](O)[C@@H]2[C@H](CC[C@]3(C)[C@@H]([C@H](C)COC(=O)NS(=O)(=O)c4ccc(OC(C)(C)C)cc4)CC[C@@H]23)[C@@]2(C)CC[C@@H](O)C[C@@H]12` [Example 24], less than 1 nM; as for `CC[C@H]1[C@@H](O)[C@@H]2[C@H](CC[C@]3(C)[C@@H]([C@H](C)COC(=O)NS(=O)(=O)c4ccc(OC(F)(F)F)cc4)CC[C@@H]23)[C@@]2(C)CC[C@@H](O)C[C@@H]12` [Example 23], greater than 100 nM.

Regarding `CC[C@H]1[C@@H](O)[C@@H]2[C@H](CC[C@]3(C)[C@@H]([C@H](C)COC(=O)NS(=O)(=O)c4ccc5c(c4)CCC(C)(C)O5)CC[C@@H]23)[C@@]2(C)CC[C@@H](O)C[C@@H]12` [Example 5], the EC50 was less than 1 nM. In turn, `CC[C@H]1[C@@H](O)[C@@H]2[C@H](CC[C@]3(C)[C@@H]([C@H](C)COC(=O)NS(=O)(=O)c4ccc5c(c4)CCC(C)(C)O5)CC[C@@H]23)[C@@]2(C)CCC(=O)C[C@@H]12` [Example 34] displayed an EC50 of less than 1 nM. Consider `CC[C@H]1[C@@H](O)[C@@H]2[C@H](C[C@H](O)[C@]3(C)[C@@H]([C@H](C)COC(=O)NS(=O)(=O)c4ccc5c(c4)CCC(C)(C)O5)CC[C@@H]23)[C@@]2(C)CC[C@@H](O)C[C@@H]12` [Example 32], for which the EC50 is greater than 100 nM. The value for `CC[C@H]1[C@@H](O)[C@@H]2[C@H](CC[C@]3(C)[C@@H]([C@H](C)COC(=O)NS(=O)(=O)c4ccc(OC5CCCC5)cc4)CC[C@@H]23)[C@@]2(C)CC[C@@H](O)C[C@@H]12` [Example 9] was less than 1 nM; that for `CCOc1ccc(S(=O)(=O)NC(=O)OC[C@@H](C)[C@H]2CC[C@H]3[C@@H]4[C@H](O)[C@H](CC)[C@@H]5C[C@H](O)CC[C@]5(C)[C@H]4CC[C@]23C)cc1` [Example 14] was less than 1 nM; that for `CC[C@H]1[C@@H](O)[C@@H]2[C@H](CC[C@]3(C)[C@@H]([C@H](C)COC(=O)NS(=O)(=O)c4ccc(OC(C)(C)C)cn4)CC[C@@H]23)[C@@]2(C)CC[C@@H](O)C[C@@H]12` [Example 22] was less than 1 nM. The value for `CC[C@H]1[C@@H](O)[C@@H]2[C@H](CC[C@]3(C)[C@@H]([C@H](C)COC(=O)NS(=O)(=O)c4ccc(O[C@@H](C)CC)cc4)CC[C@@H]23)[C@@]2(C)CC[C@@H](O)C[C@@H]12` [Example 16] was less than 1 nM; that for `CC[C@H]1[C@@H](O)[C@@H]2[C@H](CC[C@]3(C)[C@@H]([C@H](C)COC(=O)NS(=O)(=O)c4ccc(OC5(C)CCCC5)cc4)CC[C@@H]23)[C@@]2(C)CC[C@@H](O)C[C@@H]12` [Example 10] was less than 1 nM.
